The record followed here is US9511073B2, “Aromatic amides and uses thereof” (TAXIS Pharmaceuticals, Inc., priority 2011, dated 2016).

Molecules are shown by their SMILES. ≈ marks a conversion by molar mass, not a printed value. A value given as a limit tells only on which side of the number the result lay.

In this test the test system is Staphylococcus aureus (Isolate ID ATCC 29213). In words: Bacterial assay: MIC by broth microdilution or agar dilution (CLSI), S. aureus ATCC 29213. Type of test: cell-based. The settings on record: Staphylococcus aureus, ATCC29213, read-out: S. aureus MIC (μg/mL) Activity Range, S. aureus (ATCC29213). As for the experimental part: Compounds are tested for antimicrobial activity by susceptibility testing in liquid or on solid media. Minimum inhibitory concentrations (MICs) for compounds against each strain are determined by the broth microdilution or agar dilution method according to the guidelines of the Clinical Laboratories and Standards Institute, formerly the National Committee for Clinical Laboratory Standards (Clinical Laboratories and Standards Institute. Methods for Dilution Antimicrobial Susceptibility Tests for Bacteria That Grow Aerobically; Approved Standard—Seventh Edition. Document M7-A7. CLSI, Wayne, Pa., 2006; Clinical Laboratories and Standards Institute). The bacterial strains tested include S. aureus (Staphylococcus aureus (Isolate ID ATCC 29213)) and an FtsZ mutant of this isolate (FtsZ-G196A Staphylococcus aureus (Isolate ID GG/190723/sa/1.2)). Compound MICs were determined to be in the following activity ranges “A” activity≦0.25 μg/mL; “B” activity>0.25 μg/mL-1.0 μg/mL; “C” activity>1.0 μg/mL-16 μg/mL; “D” activity>16 μg/mL and ND=not determined. The bracketed entries indicate entantiomer(s) and their activity.
(In broth dilution the organism is exposed to a series of concentrations in liquid medium.)
Take `CCOC(=O)C(CC(Oc1ccc(F)c(C(N)=O)c1F)c1nc(-c2ccc(C(F)(F)F)cc2)c(Br)o1)C(=O)OCC` (centres unmarked) [Compound 119, diethyl 2-(2-(5-bromo-4-(4-(trifluoromethyl)phenyl)oxazol-2-yl)-2-(3-carbamoyl-2,4-difluorophenoxy)ethyl)malonate]: the MIC is above 16 µg/mL.

Regarding `CCOc1cc2nc(C(C)Oc3ccc(F)c(C(N)=O)c3F)sc2nc1Br` (centres unmarked) [Compound 25, 3-(1-(5-bromo-6-ethoxythiazolo[5,4-b]pyridin-2-yl)ethoxy)-2,6-difluorobenzamide], the MIC is 0.25 to 1 µg/mL (≈ 0.546 to 2.18 µM).

Regarding `CC(=O)OCC(Oc1cccc(C(N)=O)c1F)c1nc(-c2ccc(C(F)(F)F)cc2)c(Br)o1` (centres unmarked) [Compound 158, 2-(5-bromo-4-(4-(trifluoromethyl)phenyl)oxazol-2-yl)-2-(3-carbamoyl-2-fluorophenoxy)ethyl acetate], the MIC was below 0.25 µg/mL.

Take `NC(=O)CC(Oc1ccc(F)c(C(N)=O)c1F)c1nc(-c2ccc(C(F)(F)F)cc2)c(Br)o1` (centres unmarked) [Compound 96, 3-(3-amino-1-(5-bromo-4-(4-(trifluoromethyl)phenyl)oxazol-2-yl)-3-oxopropoxy)-2,6-difluorobenzamide]: the MIC was in the range of 1 to 16 µg/mL (≈ 1.87 to 29.9 µM).

On to `C=CCc1oc(C(C)Oc2ccc(F)c(C(N)=O)c2F)nc1-c1ccc(OC)cc1` (centres unmarked) [Compound 9], for which the MIC lay within 0.25 to 1 µg/mL (≈ 0.603 to 2.41 µM).

Turning to `NC(=O)c1c(F)ccc(OC(CO)c2nc(-c3ccccc3F)co2)c1F` (centres unmarked) [Compound 223, 2,6-difluoro-3-(1-(4-(2-fluorophenyl)oxazol-2-yl)-2-hydroxyethoxy)benzamide], the MIC was above 16 µg/mL.

With `CCCc1oc(C(C)Oc2ccc(F)c(C(N)=O)c2F)nc1-c1ccc(OC)cc1` (centres unmarked) [Compound 15], the MIC is 0.25 to 1 µg/mL (≈ 0.6 to 2.4 µM).

Consider `C=CCc1oc(C(CC)Oc2ccc(F)c(C(N)=O)c2F)nc1-c1ccc(Cl)cc1` (centres unmarked) [Compound 22, 3-(1-(5-allyl-4-(4-chlorophenyl)oxazol-2-yl)propoxy)-2,6-difluorobenzamide], for which the MIC lay within 1 to 16 µg/mL (≈ 2.31 to 37 µM).

Take `N#Cc1ccc(-c2nc([C@@H](CO)Oc3ccc(F)c(C(N)=O)c3F)oc2Br)cn1` [Compound 249B, (R)-3-(1-(5-bromo-4-(6-cyanopyridin-3-yl)oxazol-2-yl)-2-hydroxyethoxy)-2,6-difluorobenzamide]: the MIC is 1 to 16 µg/mL (≈ 2.15 to 34.4 µM).

Turning to `CS(=O)(=O)c1ccc(-c2nc(C(CO)Oc3ccc(F)c(C(N)=O)c3F)oc2Br)cc1` (centres unmarked) [Compound 145, 3-(1-(5-bromo-4-(4-(methylsulfonyl)phenyl)oxazol-2-yl)-2-hydroxyethoxy)-2,6-difluorobenzamide], the MIC was above 16 µg/mL.

On to `CS(=O)(=O)OCC(Oc1ccc(F)c(C(N)=O)c1F)c1nc(-c2ccc(C(F)(F)F)cc2)c(Cl)o1` (centres unmarked) [Compound 45, 2-(3-carbamoyl-2,4-difluorophenoxy)-2-(5-chloro-4-(4-(trifluoromethyl)phenyl)oxazol-2-yl)ethyl methanesulfonate], for which the MIC lay within 1 to 16 µg/mL.

Consider `NCCC(Oc1ccc(F)c(C(N)=O)c1F)c1nc(-c2ccc(C(F)(F)F)cc2)c(Br)o1` (centres unmarked) [Compound 95, 3-(3-amino-1-(5-bromo-4-(4-(trifluoromethyl)phenyl)oxazol-2-yl)propoxy)-2,6-difluorobenzamide], for which the MIC was above 16 µg/mL.

Regarding `COc1ncc(-c2csc(C(C)Oc3ccc(F)c(C(N)=O)c3F)n2)s1` (centres unmarked) [Compound 3], the MIC is below 0.25 µg/mL.

Consider `CNc1ccc(-c2nc(C(CO)Oc3ccc(F)c(C(N)=O)c3F)oc2Br)cn1` (centres unmarked) [Compound 224, 3-(1-(5-bromo-4-(6-(methylamino)pyridin-3-yl)oxazol-2-yl)-2-hydroxyethoxy)-2,6-difluorobenzamide], for which the MIC was above 16 µg/mL.

For `CN(C)C(=O)CCC(Oc1ccc(F)c(C(N)=O)c1F)c1nc(-c2ccc(C(F)(F)F)cc2)c(Br)o1` (centres unmarked) [Compound 94, 3-(1-(5-bromo-4-(4-(trifluoromethyl)phenyl)oxazol-2-yl)-4-(dimethylamino)-4-oxobutoxy)-2,6-difluorobenzamide], the MIC was below 0.25 µg/mL.

As for `NC(=O)c1c(F)ccc(OC(CO)c2nc(-c3ccc(Cl)c(F)c3)co2)c1F` (centres unmarked) [Compound 222, 3-(1-(4-(4-chloro-3-fluorophenyl)oxazol-2-yl)-2-hydroxyethoxy)-2,6-difluorobenzamide], the MIC was above 16 µg/mL.

For `NC(=O)c1c(F)ccc(OC(CNC(=O)Cc2cccnc2)c2nc(-c3ccc(C(F)(F)F)cc3)c(Br)o2)c1F` (centres unmarked) [Compound 298, 3-(1-(5-bromo-4-(4-(trifluoromethyl)phenyl)oxazol-2-yl)-2-(2-(pyridin-3-yl)acetamido)ethoxy)-2,6-difluorobenzamide], the MIC lay in the range of 1 to 16 µg/mL (≈ 1.6 to 25.6 µM).

In the case of `CN(C)CCC(Oc1ccc(F)c(C(N)=O)c1F)c1nc(-c2ccc(C(F)(F)F)cc2)c(Br)o1` (centres unmarked) [Compound 98, 3-(1-(5-bromo-4-(4-(trifluoromethyl)phenyl)oxazol-2-yl)-3-(dimethylamino)propoxy)-2,6-difluorobenzamide], the MIC lay in the range of 1 to 16 µg/mL (≈ 1.82 to 29.2 µM).

Take `CC(=O)OCC(Oc1ccc(F)c(C(N)=O)c1F)c1nc(-c2ccc(S(C)(=O)=O)cc2)c(Br)o1` (centres unmarked) [Compound 144, 2-(5-bromo-4-(4-(methylsulfonyl)phenyl)oxazol-2-yl)-2-(3-carbamoyl-2,4-difluorophenoxy)ethyl acetate]: the MIC is above 16 µg/mL.

With `Cc1ccc(-c2nc(C(CO)Oc3ccc(F)c(C(N)=O)c3F)oc2Br)cn1` (centres unmarked) [Compound 231, 3-(1-(5-bromo-4-(6-methylpyridin-3-yl)oxazol-2-yl)-2-hydroxyethoxy)-2,6-difluorobenzamide], the MIC is above 16 µg/mL.

Turning to `NC(=O)c1c(F)ccc(OC(CNC(=O)CCC(=O)O)c2nc(-c3ccc(C(F)(F)F)cc3)c(Br)o2)c1F` (centres unmarked) [Compound 302, 4-((2-(5-bromo-4-(4-(trifluoromethyl)phenyl)oxazol-2-yl)-2-(3-carbamoyl-2,4-difluorophenoxy)ethyl)amino)-4-oxobutanoic acid], the MIC fell in the range of 1 to 16 µg/mL (≈ 1.65 to 26.4 µM).

With `Cc1ccc(CNC(=O)OCC(Oc2ccc(F)c(C(N)=O)c2F)c2nc(-c3ccc(C(F)(F)F)cc3)c(Br)o2)cn1` (centres unmarked) [Compound 214, 2-(5-bromo-4-(4-(trifluoromethyl)phenyl)oxazol-2-yl)-2-(3-carbamoyl-2,4-difluorophenoxy)ethyl ((6-methylpyridin-3-yl)methyl)carbamate], the MIC fell in the range of 0.25 to 1 µg/mL (≈ 0.381 to 1.53 µM).

As to `CC(Oc1ccc(F)c(C(N)=O)c1F)c1nc(Br)c(-c2ccc(C(F)(F)F)cc2)o1` (centres unmarked) [Compound 123], the MIC fell in the range of 1 to 16 µg/mL (≈ 2.04 to 32.6 µM).

Consider `NC(=O)c1c(F)ccc(OC(COC(=O)Nc2cccnc2)c2nc(-c3ccc(C(F)(F)F)cc3)c(Br)o2)c1F` (centres unmarked) [Compound 170, 2-(5-bromo-4-(4-(trifluoromethyl)phenyl)oxazol-2-yl)-2-(3-carbamoyl-2,4-difluorophenoxy)ethyl pyridin-3-ylcarbamate], for which the MIC lay in the range of 0.25 to 1 µg/mL (≈ 0.399 to 1.59 µM).

Regarding `NC(=O)c1c(F)ccc(OC(COC(=O)NCC(=O)O)c2nc(-c3ccc(C(F)(F)F)cc3)c(Br)o2)c1F` (centres unmarked) [Compound 142, 2-(((2-(5-bromo-4-(4-(trifluoromethyl)phenyl)oxazol-2-yl)-2-(3-carbamoyl-2,4-difluorophenoxy)ethoxy)carbonyl)amino)acetic acid], the MIC is above 16 µg/mL.

`NC(=O)c1c(F)ccc(OC(COC(=O)NCc2cccnc2)c2nc(-c3ccc(C(F)(F)F)cc3)c(Br)o2)c1F` (centres unmarked) [Compound 166, 2-(5-bromo-4-(4-(trifluoromethyl)phenyl)oxazol-2-yl)-2-(3-carbamoyl-2,4-difluorophenoxy)ethyl (pyridin-3-ylmethyl)carbamate]: the MIC was below 0.25 µg/mL.
